The source of these data is PubChem BioAssay (NCI).

Some test systems named below: MDA-N; NCI-H460 lung; NCI-H226 lung; RXF 393 renal; RPMI-8226 leukemia; SK-MEL-2 melanoma; SF-268 CNS; EKVX NSCLC; UO-31 renal; KM12 colon; DU-145 prostate; HL-60(TB) leukemia.
What all share (experiment): NCI-60 cell line screen, 48 h

The structures appear in SMILES notation.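 Assay format: 96-well plates, 48-hour exposure. Definition used: TGI = concentration required for complete inhibition of growth.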 Where a SMILES comes first, the peptide text is derived from it. [ ]: non-standard residue; d: D form. The star is where a group is joined. ξ: configuration not given here. X37 = O=C(OCc1ccccc1)[C@@H]1CCC[C@H]1N*; Fmoc = O=C(OCC1c2ccccc2-c2ccccc21)*; ξW = NC(Cc1c[nH]c2ccccc12)C(=O)O; ξF = NC(Cc1ccccc1)C(=O)O; Boc = CC(C)(C)OC(=O)*; ξK = NCCCCC(N)C(=O)O; ξT = CC(O)C(N)C(=O)O; tBu = CC(C)(C)* Bounds are passed on as bounds.

For the compound `O=[N+]([O-])c1ccccc1S(=O)(=O)N1CCCc2cc(Cl)ccc21`, the TGI in the assay on MDA-N was more than 48.2 µM; in the assay on NCI-H460 lung, more than 100 µM; with NCI-H226 lung it was more than 100 µM; in the assay on RXF 393 renal it was 74.1 µM; in the assay on RPMI-8226 leukemia, more than 100 µM; with SK-MEL-2 melanoma, more than 100 µM. Further, the TGI is more than 100 µM in the assay on SF-268 CNS; more than 100 µM in the assay on EKVX NSCLC; more than 100 µM with UO-31 renal; more than 83.9 µM with KM12 colon; more than 100 µM in the assay with DU-145 prostate; 72.2 µM in the assay with HL-60(TB) leukemia.
For the compound `C[N+](C)(C)CCCCCc1c2nc(c(CCCCC[N+](C)(C)C)c3ccc([nH]3)c(CCCCC[N+](C)(C)C)c3ccc([nH]3)c(CCCCC[N+](C)(C)C)c3nc1C=C3)C=C2`, the TGI was more than 100 µM with MDA-N; more than 100 µM in the assay on NCI-H460 lung; more than 100 µM with NCI-H226 lung; 7.32 µM with RXF 393 renal; more than 100 µM in the assay with RPMI-8226 leukemia; more than 100 µM with SK-MEL-2 melanoma. Also, the TGI with SF-268 CNS, with EKVX NSCLC, with UO-31 renal, in the assay with KM12 colon, in the assay with DU-145 prostate and in the assay with HL-60(TB) leukemia was more than 100 µM in each case.
Consider `CCOC(=O)c1cc(-c2ccc(OC)c(OC)c2)cn1C`, for which the TGI in the assay with MDA-N, in the assay on NCI-H460 lung, in the assay with NCI-H226 lung, in the assay with RXF 393 renal, with RPMI-8226 leukemia and in the assay on SK-MEL-2 melanoma was more than 10 µM throughout. The TGI in the assay on SF-268 CNS, in the assay with EKVX NSCLC, with UO-31 renal, in the assay on KM12 colon, in the assay on DU-145 prostate and in the assay with HL-60(TB) leukemia was more than 10 µM in each case.
As to `COc1ccc(OC)c2c1C[C@@H]1C(C#N)N3[C@H](Cc4c(OC)ccc(OC)c4[C@@H]3C)C(=O)N1[C@H]2C` (stereo partly drawn), the TGI in the assay on MDA-N was determined as 22 µM; in the assay on NCI-H460 lung, 48 µM; in the assay with NCI-H226 lung, 40.9 µM; in the assay on RXF 393 renal it was 3.44 µM; in the assay with RPMI-8226 leukemia it was 7.29 µM; with SK-MEL-2 melanoma it was 5.2 µM. Moreover, the TGI was 6.71 µM in the assay on SF-268 CNS; 20.5 µM with EKVX NSCLC; 4.54 µM with UO-31 renal; 8.21 µM in the assay on KM12 colon; more than 54.7 µM in the assay on DU-145 prostate; 6.18 µM in the assay with HL-60(TB) leukemia.
Consider `CC(OC(C)(C)C)C(NC(=O)C(CCCCNC(=O)OC(C)(C)C)NC(=O)C(Cc1c[nH]c2ccccc12)NC(=O)C(Cc1ccccc1)NC(=O)OCC1c2ccccc2-c2ccccc21)C(=O)NC(Cc1ccccc1)C(=O)N[C@@H]1CCC[C@H]1C(=O)OCc1ccccc1` (stereo partly drawn) (Fmoc-[ξF][ξW][ξK](Boc)[ξT](tBu)[ξF]-X37), for which the TGI with MDA-N, in the assay with NCI-H460 lung, with NCI-H226 lung, in the assay with RXF 393 renal, in the assay on RPMI-8226 leukemia and with SK-MEL-2 melanoma was more than 100 µM each time. In addition, the TGI in the assay with SF-268 CNS, with EKVX NSCLC, in the assay with UO-31 renal, with KM12 colon, in the assay with DU-145 prostate and in the assay on HL-60(TB) leukemia was more than 100 µM in each case.
In the case of `COC(=O)c1ccc(/C=C/C2=CC(=O)C=CC2=O)cc1`, the TGI was more than 100 µM with MDA-N; more than 64.6 µM in the assay on NCI-H460 lung; 40.2 µM with NCI-H226 lung; 42.2 µM in the assay with RXF 393 renal; 4.49 µM in the assay with RPMI-8226 leukemia; more than 62.1 µM with SK-MEL-2 melanoma. In addition, the TGI was 42.9 µM in the assay with SF-268 CNS; 47.5 µM in the assay with EKVX NSCLC; 17.9 µM in the assay on UO-31 renal; 31.6 µM in the assay on KM12 colon; more than 100 µM in the assay on DU-145 prostate; 5.9 µM in the assay on HL-60(TB) leukemia.
As to `COC(=O)c1c(C)nc(C)c(N=O)c1-c1ccccc1C(F)(F)F`, the TGI in the assay with MDA-N was 43.6 µM; with NCI-H460 lung, more than 100 µM; in the assay with NCI-H226 lung, 43.2 µM; with RXF 393 renal it was 29.7 µM; in the assay on RPMI-8226 leukemia, more than 100 µM; in the assay on SK-MEL-2 melanoma it was more than 100 µM. Moreover, the TGI in the assay with SF-268 CNS was 30.8 µM; with EKVX NSCLC, more than 100 µM; in the assay on UO-31 renal it was 37.1 µM; in the assay on KM12 colon, 35.9 µM; in the assay with DU-145 prostate it was more than 100 µM; in the assay on HL-60(TB) leukemia it was more than 100 µM.
For `CC(=O)c1ccc2c(c1)CC1(C2)Cc2cc3c(cc2C1)C(=O)CC3` (stereo not drawn), the TGI was 0.492 µM in the assay on MDA-N; 12.2 µM in the assay on NCI-H460 lung; 2.33 µM in the assay on NCI-H226 lung; 17.7 µM in the assay on RXF 393 renal; 3.61 µM in the assay on RPMI-8226 leukemia; 5.75 µM with SK-MEL-2 melanoma. Further, the TGI in the assay with SF-268 CNS is more than 100 µM; in the assay on EKVX NSCLC, more than 89.6 µM; in the assay with UO-31 renal, 66.9 µM; in the assay with KM12 colon, 7.83 µM; in the assay with DU-145 prostate, 25.8 µM; in the assay on HL-60(TB) leukemia, 2.1 µM.
For `CCC1=C(C)C2=NC1=CC1=NC(=C(CC)/C1=C/O)C=C1N=C3C(=C1C)C(=O)C(C(=O)OC)C3=C1NC(=C2)C(C)C1CCC(=O)OC` (stereo not drawn), the TGI in the assay with MDA-N, in the assay with NCI-H460 lung, in the assay with NCI-H226 lung, with RXF 393 renal, in the assay with RPMI-8226 leukemia and in the assay with SK-MEL-2 melanoma was more than 100 µM in each case. Also, the TGI with SF-268 CNS, in the assay with EKVX NSCLC, with UO-31 renal, with KM12 colon, in the assay with DU-145 prostate and with HL-60(TB) leukemia was more than 100 µM each time.
